Data as given in paper PMC5045260 (Phytotherapy research : PTR, 2016).

Assays:
c-Met [1] = target: T1, c-Met (Homo sapiens, UniProt P08581); test: Z'-LYTE Tyr6 peptide kinase assay, […] ATP, purified c-Met kinase domain; format: biochemical
c-Met [2] = target: T1, c-Met; test: Z'-LYTE Tyr6 peptide kinase assay, single concentration; format: biochemical

T1 sequence (P08581 956-1390 limits assumed): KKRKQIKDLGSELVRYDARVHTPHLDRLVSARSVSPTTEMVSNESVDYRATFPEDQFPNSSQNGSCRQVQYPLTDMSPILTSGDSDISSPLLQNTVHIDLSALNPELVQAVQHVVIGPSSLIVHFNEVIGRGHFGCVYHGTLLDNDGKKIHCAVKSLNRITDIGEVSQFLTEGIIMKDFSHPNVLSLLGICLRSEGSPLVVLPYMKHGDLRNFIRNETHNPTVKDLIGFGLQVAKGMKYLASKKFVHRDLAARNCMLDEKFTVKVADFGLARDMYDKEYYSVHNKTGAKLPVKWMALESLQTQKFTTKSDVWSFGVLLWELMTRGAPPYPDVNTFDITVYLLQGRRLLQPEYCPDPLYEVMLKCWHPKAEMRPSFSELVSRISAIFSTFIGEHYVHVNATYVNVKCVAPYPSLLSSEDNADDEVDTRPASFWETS

IC50 (c-Met [1]) [µM] | SMILES | Z'-LYTE Tyr6 peptide kinase assay, single concentration (53% reduction at 5 μM), (c-Met [2]) [% reduction at 5]
6.5 | Cc1cc(O)c(C=O)c2c1C(=O)Oc1c(C)c(O)c3c(c1O2)C(O)OC3=O (centres unmarked) [norstictic acid] | 
 | C/C=C(/C=O)[C@@H](CC=O)CC(=O)OCCc1ccc(O)cc1 [oleocanthal] | 53
